Experimental data reported in patent US20080003627A1, “SYSTEM FOR BIOSYNTHESIS OF FIREFLY LU[…] WITH NATURAL L-CYSTEINE OR DERIVATIVES THEREOF AND LU[…] SOLUTIONS CONTAINING THE SYSTEM” (NATIONAL INSTITUTE OF ADVANCED INDUSTRIAL SCIENCE AND …, priority 2004, published 2008).

Target: firefly luciferase (Photinus pyralis, UniProt P08659)
Experiment: firefly luminescence reaction (luminescence activity as substrate)
Format: biochemical
Settings: ATP, Mg ion, luminometer
Protocol: In a buffer solution (0.1 M Tris-HCl, pH 8), 10 mM 2-cyano-6-hydroxybenzothiazole, 1 mM L-cysteine, 10 mM COA-SH, 0.1 mg/mL of firefly luciferase and 100 units/mL of swine liver esterase were dissolved, 10 μL of the mixture was dispensed in a tube for measuring the luminescence, and a total volume was made 100 μL by adding the same buffer. An ATP—Mg solution (100 μL, 6 mM ATP—Na, 16 mM MgSO4) was injected thereto to initiate a luminescence reaction, and a luminescence amount was measured using a luminometer AB2200 supplied from ATTO Corporation.

firefly luciferase, sequence (P08659 whole entry): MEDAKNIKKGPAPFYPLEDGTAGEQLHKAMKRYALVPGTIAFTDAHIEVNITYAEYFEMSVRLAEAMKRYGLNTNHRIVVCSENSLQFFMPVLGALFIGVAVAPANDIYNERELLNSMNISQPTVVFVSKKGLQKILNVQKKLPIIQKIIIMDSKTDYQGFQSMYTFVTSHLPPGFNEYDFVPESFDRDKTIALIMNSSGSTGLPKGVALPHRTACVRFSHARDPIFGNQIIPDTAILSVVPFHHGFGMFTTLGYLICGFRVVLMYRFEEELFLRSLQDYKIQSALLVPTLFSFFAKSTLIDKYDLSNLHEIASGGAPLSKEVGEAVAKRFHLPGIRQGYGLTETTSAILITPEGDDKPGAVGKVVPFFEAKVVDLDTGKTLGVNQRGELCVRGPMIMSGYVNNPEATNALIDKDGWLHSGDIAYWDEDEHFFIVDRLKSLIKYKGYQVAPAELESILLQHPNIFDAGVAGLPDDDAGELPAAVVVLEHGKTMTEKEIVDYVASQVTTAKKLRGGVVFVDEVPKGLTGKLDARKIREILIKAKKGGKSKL

Structure (SMILES): CC(C)(COP(=O)(O)OP(=O)(O)OCC1OC(n2cnc3c(N)ncnc32)C(O)C1OP(=O)(O)O)C(O)C(=O)NCCC(=O)NCCSC(=O)C1CSC(c2nc3ccc(O)cc3s2)=N1 (stereo not shown) [luciferyl-CoA]
- luminescence activity (produces luminescence with luciferase): does not produce the luminescence
